For 13 compounds, TGI results are on record in PubChem BioAssay (NCI).

Some test systems named below: BT-549 breast; EKVX NSCLC; K-562 leukemia; LOX IMVI melanoma; MDA-MB-435; MOLT-4 leukemia; NCI-H460 lung; SF-268 CNS; SF-539 CNS; T-47D breast.
Common to all, as to test: growth of human tumour cells (NCI), 48 h

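Dose response: 5 concentrations. Exposure: 48 h. Format: 96-well plates. Endpoint: linear interpolation; highest concentration if not reached. The concentration for full growth arrest is given as TGI.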

Turning to `CC(C)Oc1cccc(N2C(CCc3c[nH]c4ccc(Br)cc34)=NS(=O)(=O)c3cnccc32)c1`, the TGI was over 100 µM in the experiment on BT-549 breast; over 100 µM in the experiment on EKVX NSCLC; over 100 µM in the experiment on K-562 leukemia; over 100 µM with LOX IMVI melanoma; over 100 µM in the experiment on MDA-MB-435; 92 µM in the experiment on MOLT-4 leukemia. Besides, the TGI in the experiment on NCI-H460 lung, with SF-268 CNS, in the experiment on SF-539 CNS and with T-47D breast was over 100 µM in each case.

Turning to `O=C(/C=C\c1ccccc1)Oc1ccc(/C=C2\CCC/C(=C\c3ccc(OC(=O)/C=C\c4ccccc4)cc3)C2=O)cc1`, the TGI with BT-549 breast, in the experiment with EKVX NSCLC, with LOX IMVI melanoma, in the experiment with MDA-MB-435, in the experiment with MOLT-4 leukemia and in the experiment on NCI-H460 lung was over 100 µM in each case. Further, the TGI in the experiment on SF-268 CNS, in the experiment with SF-539 CNS and in the experiment on T-47D breast was over 100 µM in each case.

For the compound `CC(=O)CCC1(C(=O)OCC(C)C)CCCC1=O` (stereo not drawn), the TGI in the experiment on BT-549 breast, with EKVX NSCLC, in the experiment with K-562 leukemia, in the experiment on LOX IMVI melanoma, in the experiment on MDA-MB-435 and with MOLT-4 leukemia was over 100 µM throughout. Moreover, the TGI in the experiment on NCI-H460 lung, in the experiment with SF-268 CNS, with SF-539 CNS and in the experiment with T-47D breast was over 100 µM in each case.

With `Cc1ccc(S(=O)(=O)OCCN(CCOS(=O)(=O)c2ccc(C)cc2)c2ccc(C=O)cc2)cc1`, the TGI is over 100 µM with BT-549 breast; 91 µM in the experiment with EKVX NSCLC; over 100 µM with K-562 leukemia; over 100 µM in the experiment with LOX IMVI melanoma; 44.4 µM in the experiment with MDA-MB-435; over 100 µM with MOLT-4 leukemia. Besides, the TGI with NCI-H460 lung was 48.6 µM; with SF-268 CNS, over 100 µM; in the experiment on SF-539 CNS, over 100 µM; in the experiment on T-47D breast it was over 100 µM.

With `COc1ccc2oc(=O)c(-c3cc4c(c(C)n3)c(=O)oc3ccc(OC)cc34)cc2c1`, the TGI with BT-549 breast, in the experiment on EKVX NSCLC, in the experiment with K-562 leukemia, in the experiment with LOX IMVI melanoma, in the experiment on MDA-MB-435 and in the experiment with MOLT-4 leukemia was over 100 µM throughout. For the same compound, the TGI in the experiment on NCI-H460 lung, with SF-268 CNS, in the experiment on SF-539 CNS and with T-47D breast was over 100 µM each time.

As for `COc1cccc2c(=O)oc(-c3ccccc3C)nc12`, the TGI is 48.2 µM in the experiment on BT-549 breast; over 100 µM in the experiment on EKVX NSCLC; over 100 µM in the experiment with K-562 leukemia; 36.6 µM in the experiment with LOX IMVI melanoma; over 100 µM in the experiment on MDA-MB-435; 68 µM in the experiment on MOLT-4 leukemia. The TGI is over 100 µM in the experiment on NCI-H460 lung, over 100 µM in the experiment on SF-268 CNS, 69.4 µM with SF-539 CNS and over 100 µM with T-47D breast.

For `COC(=O)Nc1cc(OCCCOC(C)=O)c2[nH]c(C(=O)OC)cc2c1C[C@H](O)CO`, the TGI in the experiment with BT-549 breast, with EKVX NSCLC, in the experiment with LOX IMVI melanoma, with MDA-MB-435, with MOLT-4 leukemia and in the experiment on SF-539 CNS was over 100 µM each time. Moreover, the TGI with T-47D breast is over 100 µM.

Regarding `COc1cc2c(cc1O)NC(=O)[C@@H]1C[C@@H](O)CN1C2=O`, the TGI in the experiment on BT-549 breast, in the experiment with EKVX NSCLC, with K-562 leukemia, with LOX IMVI melanoma, in the experiment on MDA-MB-435 and with MOLT-4 leukemia was over 100 µM throughout. Moreover, the TGI in the experiment on NCI-H460 lung, in the experiment on SF-268 CNS, in the experiment on SF-539 CNS and in the experiment with T-47D breast was over 100 µM in each case.

For `O=c1c2ccc(Cl)cc2oc2c(CSc3ccccc3)cccc12`, the TGI is over 78.7 µM with BT-549 breast; over 100 µM in the experiment on EKVX NSCLC; over 100 µM with K-562 leukemia; over 91.9 µM in the experiment with LOX IMVI melanoma; over 68.3 µM in the experiment with MDA-MB-435; over 100 µM in the experiment with MOLT-4 leukemia. Moreover, the TGI is 90.4 µM with NCI-H460 lung, over 100 µM with SF-268 CNS, over 60.7 µM with SF-539 CNS and over 100 µM in the experiment on T-47D breast.

In the case of `COc1cc2c(cc1OC)C1=C(C=O)c3ccc(OC)c(OC)c3C(O)N1CC2` (stereo not drawn), the TGI with BT-549 breast was 70.1 µM; in the experiment with EKVX NSCLC it was over 100 µM; in the experiment with MDA-MB-435 it was over 100 µM; in the experiment with MOLT-4 leukemia, over 100 µM; with NCI-H460 lung, over 100 µM; with SF-268 CNS, over 100 µM. The TGI was 64.8 µM in the experiment on SF-539 CNS and 57.9 µM in the experiment with T-47D breast.

With `OCCN1CCN(c2nc(N3CCCC3)c3nc(Cl)c(NCc4ccccc4)nc3n2)CC1`, the TGI in the experiment on BT-549 breast was determined as 20.7 µM; in the experiment on EKVX NSCLC it was 25 µM; with K-562 leukemia, 22 µM; with LOX IMVI melanoma, 10.6 µM; in the experiment on MDA-MB-435, 10.7 µM; in the experiment with MOLT-4 leukemia, 15.3 µM. Further, the TGI with NCI-H460 lung was found to be 18.1 µM; in the experiment on SF-268 CNS, 23.2 µM; with SF-539 CNS it was 13.6 µM; in the experiment on T-47D breast, 17.4 µM.

As for `Clc1[nH]nc2ccccc12`, the TGI in the experiment with BT-549 breast, with EKVX NSCLC, in the experiment on K-562 leukemia, with MDA-MB-435, with MOLT-4 leukemia and in the experiment with NCI-H460 lung was over 100 µM in each case. In addition, the TGI in the experiment with SF-268 CNS, in the experiment on SF-539 CNS and in the experiment on T-47D breast was over 100 µM each time.

`COc1cc2c(cc1O)C(Cc1ccc(OCc3ccccc3)c(OCc3ccccc3)c1)N(C(=O)NCCc1ccccc1)CC2` (stereo not drawn): the TGI in the experiment on BT-549 breast, in the experiment on EKVX NSCLC, in the experiment on K-562 leukemia, in the experiment on LOX IMVI melanoma, with MDA-MB-435 and in the experiment on MOLT-4 leukemia was over 100 µM each time. The TGI with NCI-H460 lung, with SF-268 CNS, with SF-539 CNS and with T-47D breast was over 100 µM throughout.
